According to the supplement of paper PMC10307832:

Key:
Assay in all cases: relative viability (nuclei count vs DMSO), 5 days (fraction); higher = more cells survive
[1] = compound: NCC(=O)Nc1ccc(-n2nc(C(F)(F)F)cc2-c2ccc3c(ccc4ccccc43)c2)cc1 + CS(=O)(=O)N1CCN(Cc2cc3nc(-c4cccc5[nH]ncc45)nc(N4CCOCC4)c3s2)CC1 [Pictilisib] (partner 1 µM)
Procedure, shortened: (§1)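 Lung cancer cell lines, seeded in 1536-well plates, were treated the following day by pin tool with a single drug or with five library-drug doses (not always all listed) in √10 steps on top of a fixed anchor-drug dose. Cells were fixed and nuclei stained in one step after 5 days, and nuclei were counted. Relative viability is the nuclei count for treated wells divided by that for vehicle wells, reported as medians of duplicate plates.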

[2] = compound: NCC(=O)Nc1ccc(-n2nc(C(F)(F)F)cc2-c2ccc3c(ccc4ccccc43)c2)cc1 + C[C@]1(O)C[C@@H](c2nc(-c3ccc4ccc(-c5ccccc5)nc4c3)c3c(N)nccn32)C1 [Linsitinib] (partner 1 µM)
Procedure, shortened: as §1

kb NB 142-70 + OSI-027 = compound: C1CSC2=C(C(=O)N1)SC3=C2C=C(C=C3)O [kb NB 142-70] + COc1cccc2cc(-c3nc([C@H]4CC[C@H](C(=O)O)CC4)n4ncnc(N)c34)[nH]c12 [OSI-027] (partner 0.5 µM)
Procedure, shortened: as §1

[3] = compound: NCC(=O)Nc1ccc(-n2nc(C(F)(F)F)cc2-c2ccc3c(ccc4ccccc43)c2)cc1 + CC1(C)CCC(c2ccc(Cl)cc2)=C(CN2CCN(c3ccc(C(=O)NS(=O)(=O)c4ccc(N[C@H](CCN5CCOCC5)CSc5ccccc5)c(S(=O)(=O)C(F)(F)F)c4)cc3)CC2)C1 [Navitoclax] (partner 0.5 µM)
Procedure, shortened: as §1

Row | Cell Line | relative viability ([1]; first compound 0.02 µM) | relative viability ([1]; first compound 0.06325 µM) | relative viability ([1]; first compound 0.2 µM) | relative viability ([1]; first compound 0.6325 µM) | relative viability ([1]; first compound 2 µM) | relative viability ([2]; first compound 0.02 µM) | relative viability ([2]; first compound 0.06325 µM) | relative viability ([2]; first compound 0.2 µM) | relative viability ([2]; first compound 0.6325 µM) | relative viability ([2]; first compound 2 µM) | relative viability (kb NB 142-70 + OSI-027; first compound 0.1 µM) | relative viability (kb NB 142-70 + OSI-027; first compound 1 µM) | relative viability (kb NB 142-70 + OSI-027; first compound 3.162 µM) | relative viability ([3]; first compound 0.02 µM) | relative viability ([3]; first compound 0.06325 µM) | relative viability ([3]; first compound 0.2 µM) | relative viability ([3]; first compound 0.6325 µM) | relative viability ([3]; first compound 2 µM)
1 | HCC-78 | 0.208 | 0.245 | 0.216 | 0.205 | 0.203 | 0.572 | 0.563 | 0.498 | 0.49 | 0.541 | 0.379 | 0.375 | 0.34 | 0.854 | 0.868 | 0.729 | 0.715 | 0.908
2 | HCC-366 | 0.147 | 0.205 | 0.174 | 0.172 | 0.141 | 0.784 | 0.645 | 0.431 | 0.557 | 0.675 | 1.04 | 0.894 | 0.742 | 1.15 | 1.04 | 1.02 | 1.03 | 1.16
3 | HCC-827 | 1.01 | 1.15 | 1.05 | 0.79 | 0.896 | 0.93 | 0.972 | 1 | 0.956 | 0.958 | 0.775 | 0.759 | 0.775 | 0.992 | 1.04 | 1.06 | 1.06 | 1.01
4 | HOP-62 | 0.775 | 0.577 | 0.68 | 0.752 | 0.623 | 1.14 | 0.901 | 0.854 | 1.03 | 1.05 | 0.868 | 0.751 | 0.699 | 1.06 | 1.01 | 0.996 | 0.91 | 1.08
5 | IA-LM | 0.444 | 0.356 | 0.302 | 0.477 | 0.288 | 0.802 | 0.39 | 0.558 | 0.706 | 0.539 |  |  |  | 0.814 | 0.808 | 0.898 | 0.86 | 0.827
6 | LC-2-ad | 0.428 | 0.503 | 0.377 | 0.453 | 0.403 | 0.996 | 0.94 | 0.876 | 0.852 | 0.897 | 0.779 | 0.842 | 0.699 | 0.456 | 0.44 | 0.484 | 0.492 | 0.535
7 | LCLC-97TM1 | 0.29 | 0.215 |  | 0.178 | 0.187 | 0.146 | 0.185 |  | 0.198 | 0.183 | 0.635 | 0.407 | 0.237 | 0.321 | 0.422 |  | 0.359 | 0.393
8 | LCLC-103H | 0.606 | 0.61 | 0.571 | 0.648 | 0.673 | 1.16 | 0.997 | 1.12 | 1.11 | 0.978 | 0.493 | 0.452 | 0.454 |  |  |  |  | 
9 | LK-2 | 0.536 | 0.669 | 0.462 | 0.577 | 0.616 | 0.686 | 0.437 | 0.483 | 0.555 | 0.522 | 0.19 | 0.163 | 0.163 | 1.02 | 0.862 | 0.961 | 0.853 | 0.757
10 | LOU-NH91 | 0.497 | 0.622 | 0.49 | 0.476 | 0.537 | 0.984 | 1.04 | 0.891 | 0.959 | 1.09 | 0.699 | 0.695 | 0.651 | 0.74 | 0.755 | 0.722 | 0.673 | 0.804
11 | LU99A | 0.338 | 0.36 | 0.321 | 0.311 | 0.294 | 0.556 | 0.571 | 0.555 | 0.618 | 0.532 | 0.325 | 0.327 | 0.317 | 0.756 | 0.799 | 0.87 | 0.891 | 0.824
12 | NCI-H358 | 0.43 | 0.309 | 0.322 | 0.383 | 0.341 | 0.807 | 0.8 | 0.72 | 0.868 | 0.737 | 0.669 | 0.464 | 0.105 |  |  |  |  | 
13 | NCI-H522 |  |  |  |  |  |  |  |  |  |  | 0.737 | 0.658 | 0.608 |  |  |  |  | 
14 | NCI-H650 | 0.843 | 0.913 | 1.05 | 0.782 | 0.948 | 0.638 | 1.01 | 1.02 | 0.862 | 1.08 | 0.535 | 0.519 | 0.52 |  |  |  |  | 
15 | NCI-H661 | 0.453 | 0.389 | 0.357 | 0.325 | 0.407 | 0.573 | 0.584 | 0.582 | 0.496 | 0.566 | 0.723 | 0.717 | 0.61 |  |  |  |  | 
16 | NCI-H1299 | 0.346 | 0.8 | 0.804 | 0.781 | 0.732 | 0.937 | 0.971 | 1.05 | 0.929 | 0.999 |  |  |  | 1.02 | 1.06 | 1.09 | 1.04 | 1.07
17 | NCI-H1563 | 0.69 | 0.683 | 0.669 | 0.611 | 0.622 | 1.33 | 1.22 | 1.2 | 1.19 | 1.28 | 0.773 | 0.739 | 0.752 |  |  |  |  | 
18 | NCI-H1623 |  |  |  |  |  |  |  |  |  |  | 0.399 | 0.375 | 0.404 |  |  |  |  | 
19 | NCI-H1648 |  |  |  |  |  |  |  |  |  |  | 0.253 | 0.217 | 0.237 |  |  |  |  | 
20 | NCI-H1650 | 0.616 | 0.656 | 0.215 | 0.652 | 0.556 |  |  |  |  |  | 0.612 | 0.755 | 0.483 | 1.25 | 1.5 | 1.32 | 1.1 | 1.31
21 | NCI-H1703 | 0.218 | 0.244 | 0.278 | 0.255 | 0.262 | 0.718 | 0.781 | 0.52 | 0.691 | 0.591 |  |  |  | 1.07 | 1.06 | 1.35 | 1 | 1.51
22 | NCI-H2170 | 0.233 | 0.325 | 0.319 | 0.328 | 0.323 |  |  |  |  |  | 0.699 | 0.694 | 0.588 | 0.56 | 0.598 | 0.578 | 0.561 | 0.6
23 | NCI-H2342 |  |  |  |  |  |  |  |  |  |  | 0.649 | 0.612 | 0.638 |  |  |  |  | 
24 | SW 900 |  |  |  |  |  |  |  |  |  |  | 0.552 | 0.478 | 0.295 |  |  |  |  | 
